# Laboratory results as given in patent US20110086826A1, “LIPOSOMAL CAMPTOTHECINS AND USES THEREOF” (TEKMIRA PHARMACEUTICALS CORPORATION, priority 2000, published 2011).
# Key:
# [1] = Topotecan lactone species in plasma; format: in vivo, mice; settings: after only 5 minutes
# Serum chemistry panel = format: in vivo, ICR mice; settings: 10 mg/kg i.v., day 3 post-injection
# Procedure: Myelosuppression and neutropenia studies. […] Empty vesicles were administered as a control. CBC and differential analysis was performed at Central Labs for Veterinarians (Langley, BC) to quantify cellular levels, ratios and morphology.
# [2] = tested on: LX-1 human SCLC xenografts; assay: Subcutaneous LX-1 human SCLC xenografts; settings: for % ILS (increase in lifespan) / DRD (drug related deaths) / LCK (log cell kill, gross) / MWL (maximum mean weight loss): LX-1 s.c.
# Source text: Topotecan was encapsulated in SM:CH (55:45) vesicles at a drug-to-lipid ratio of 0.10 (w/w) using the Mg-A23187 method as described in Experimental. All dilutions were made in sterile 0.9% saline immediately prior to injection. Drug administration was made via the lateral tail vein at 10 days post-tumor cell implantation when the tumors were 100-300 mm^3. Data points represent mean±SEM (n=6).
# Topotecan was encapsulated in SM:CH (55:45) vesicles at a drug-to-lipid ratio of 0.10 (w/w) using the Mg-A23187 method as described in Experimental. All dilutions were made in sterile 0.9% saline immediately prior to injection. Drug administration was made via the lateral tail vein on day 14, 21 and 28 post-tumor cell implantation. Data points represent mean±SEM (n=6).
# Tumor Models. […] Human MX-1 and LX-1 cell lines were obtained from the DCTD Tumor Repository in Frederick, Md. These cell lines were received as tumor fragments and were propagated in NCr nude mice by serial transplantation of 3×3 mm fragments. Experiments were not initiated until the cell lines had been through 3 passages in nude mice and the tumor lines were restarted when the passage number reached 10.
# Efficacy Studies. […] For the MX-1 and LX-1 tumor models, tumor volume was determined by repeated perpendicular measurements of tumor dimensions and using the formula:
# [3] = humans, daily for 5 consecutive days (d×5); cited from earlier work
# [4] = q7dx3, NCTEF-007, 10 mg/kg/dose i.v.
# [5] = q7dx3, NCTEF-007, 30 mg/kg/dose i.v.
# [6] = q7dx3, NCTEF-011, 10 mg/kg/dose i.v.
# [7] = q7dx3, NCTEF-011, 30 mg/kg/dose i.v.
compound,measurement,setting,value
"CC[C@@]1(O)C(=O)OCc2c1cc1n(c2=O)Cc2cc3c(CN(C)C)c(O)ccc3nc2-1 [Free, 9-dimethylaminomethyl-10-hydroxy-camptothecin]",topotecan present in plasma as the lactone species,[1],48%
same,ALT,Serum chemistry panel,13 ± 23 IU/L
same,Albumin,Serum chemistry panel,32.8 ± 1.3 g/L
same,BUN,Serum chemistry panel,9.4 ± 3.2 mmol/L
same,Bilirubin,Serum chemistry panel,3.8 ± 0.8 µmol/L
same,CPK,Serum chemistry panel,56 ± 38 IU/L
same,Creatinine,Serum chemistry panel,82 ± 18 µmol/L
same,Globulin,Serum chemistry panel,15.2 ± 1.1 g/L
same,TP,Serum chemistry panel,48.0 ± 2.1 g/L
same,anti-tumor activity (in words),"[2]; LX-1, initial single dose studies",inactive at evaluated doses<30 mg/kg
same,% ILS (increase in lifespan),[2]; [4],21%
same,DRD (drug related deaths),[2]; [4],0/6
same,"LCK (log cell kill, gross)",[2]; [4],0.14
same,MWL (maximum mean weight loss),[2]; [4],−6.2%
same,DRD (drug related deaths),[2]; [5],0/6
same,"LCK (log cell kill, gross)",[2]; [5],1.53
same,MWL (maximum mean weight loss),[2]; [5],−8.8%
same,DRD (drug related deaths),[2]; [6],0/6
same,MWL (maximum mean weight loss),[2]; [6],−3.6%
same,DRD (drug related deaths),[2]; [7],2/6
same,MWL (maximum mean weight loss),[2]; [7],−16.4%
same,% ILS (increase in lifespan),[2]; single i.v. dose 5 mg/kg,0%
same,DRD (drug related deaths),[2]; single i.v. dose 5 mg/kg,0/6
same,"LCK (log cell kill, gross)",[2]; single i.v. dose 5 mg/kg,0.13
same,MWL (maximum mean weight loss),[2]; single i.v. dose 5 mg/kg,+
same,% ILS (increase in lifespan),[2]; single i.v. dose 10 mg/kg,0%
same,DRD (drug related deaths),[2]; single i.v. dose 10 mg/kg,0/6
same,"LCK (log cell kill, gross)",[2]; single i.v. dose 10 mg/kg,0.18
same,MWL (maximum mean weight loss),[2]; single i.v. dose 10 mg/kg,+
same,% ILS (increase in lifespan),[2]; single i.v. dose 30 mg/kg,7%
same,DRD (drug related deaths),[2]; single i.v. dose 30 mg/kg,0/6
same,"LCK (log cell kill, gross)",[2]; single i.v. dose 30 mg/kg,0.27
same,MWL (maximum mean weight loss),[2]; single i.v. dose 30 mg/kg,−1.3%
same,MTD,[3],1.5 mg/M^2/dose
